Assay results taken from ChEMBL document CHEMBL1201862, “PubChem BioAssay data set” (2004).
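Briefly, cells in 96-well plates were exposed to five compound concentrations for 48 h, and endpoints were estimated by linear interpolation. GI50 is the concentration that inhibits growth by half.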 Active and inactive are the calls of the source. Rule as the data show it: active = GI50 up to about 1.1 µM and inactive = higher.

Key:
Experiment in all cases: NCI anticancer screen, dose series, 48 h
KM12 = system: KM12
RXF 393 = system: RXF 393
SF-295 = system: SF-295
UO-31 = system: UO-31
HCT-116 = system: HCT-116
SNB-75 = system: SNB-75
MOLT-4 = system: MOLT-4
LOX IMVI = system: LOX IMVI
OVCAR-3 = system: OVCAR-3
HOP-62 = system: HOP-62
KM-20L2 = system: KM-20L2
NCI-H23 = system: NCI-H23
SK-MEL-2 = system: SK-MEL-2
HCC 2998 = system: HCC 2998
OVCAR-5 = system: OVCAR-5
ACHN = system: ACHN
TK-10 = system: TK-10
CAKI-1 = system: CAKI-1
K562 = system: K562

Measured: GI50

S=c1sc2c(Cl)ncnc2n1-c1ccccc1
inactive: KM12 17.2 µM | RXF 393 15.1 µM | SF-295 12.8 µM | UO-31 18.7 µM | HCT-116 5.66 µM | SNB-75 14 µM | MOLT-4 18.2 µM | LOX IMVI 4.28 µM | OVCAR-3 15.4 µM | HOP-62 15.6 µM | KM-20L2 19.1 µM | NCI-H23 17.4 µM | SK-MEL-2 8.81 µM | HCC 2998 17.1 µM | OVCAR-5 22.9 µM | ACHN 16.5 µM | TK-10 17.8 µM | CAKI-1 4.88 µM

CC1C(c2ccccc2)=CCON1c1ccccc1 (stereo not given)
inactive: KM12 > 100 µM | RXF 393 > 100 µM | SF-295 > 100 µM | UO-31 > 100 µM | HCT-116 > 100 µM | K562 > 100 µM | SNB-75 > 100 µM | MOLT-4 > 100 µM | LOX IMVI > 100 µM | OVCAR-3 > 100 µM | HOP-62 > 100 µM | KM-20L2 > 100 µM | NCI-H23 > 100 µM | SK-MEL-2 > 100 µM | HCC 2998 > 100 µM | OVCAR-5 > 100 µM | ACHN > 100 µM | CAKI-1 > 100 µM

NC(=O)/C(=N\NC(=O)C[n+]1ccccc1)C1NC(=O)NC1=O (stereo not given)
inactive: KM12 > 100 µM | RXF 393 > 100 µM | SF-295 > 100 µM | UO-31 > 100 µM | HCT-116 > 100 µM | K562 > 100 µM | SNB-75 > 100 µM | MOLT-4 > 100 µM | LOX IMVI > 100 µM | OVCAR-3 > 100 µM | HOP-62 > 100 µM | KM-20L2 > 100 µM | NCI-H23 > 100 µM | SK-MEL-2 > 100 µM | HCC 2998 > 100 µM | OVCAR-5 > 100 µM | ACHN > 100 µM | TK-10 > 100 µM | CAKI-1 > 100 µM

CCCCN(CC)CC(C(C)=O)c1c(O)c2ccccc2oc1=O (stereo not given)
inactive: KM12 > 100 µM | RXF 393 > 100 µM | SF-295 > 100 µM | UO-31 > 100 µM | HCT-116 > 100 µM | K562 > 100 µM | SNB-75 > 100 µM | MOLT-4 > 100 µM | LOX IMVI > 100 µM | OVCAR-3 > 100 µM | HOP-62 > 100 µM | KM-20L2 > 100 µM | NCI-H23 15.4 µM | SK-MEL-2 > 100 µM | HCC 2998 > 100 µM | OVCAR-5 > 100 µM | ACHN > 100 µM | TK-10 > 100 µM | CAKI-1 > 100 µM

C[C@]12CCC3[C@@H](CC[C@@H]4c5nonc5CC[C@]34C)C1CC[C@@H]2O (stereo not given in full)
inactive: KM12 37.8 µM | RXF 393 24.8 µM | SF-295 34.8 µM | UO-31 > 10 µM | K562 34.3 µM | SNB-75 27.2 µM | MOLT-4 23.3 µM | LOX IMVI 19.6 µM | OVCAR-3 21.1 µM | HOP-62 28.4 µM | KM-20L2 43.7 µM | NCI-H23 32.1 µM | SK-MEL-2 22.6 µM | HCC 2998 31.8 µM | OVCAR-5 > 100 µM | ACHN 23.6 µM | TK-10 29.5 µM | CAKI-1 19.8 µM

COc1cc(/C=C2\NC(=S)C3Cc4c(OC)c(C)c(OC)c(OC)c4C2N3C)c(OC)c(C)c1OC (stereo not given)
inactive: KM12 92.9 µM | RXF 393 24.7 µM | SF-295 50.5 µM | UO-31 21.2 µM | HCT-116 33.7 µM | K562 49.4 µM | SNB-75 > 100 µM | MOLT-4 21.2 µM | LOX IMVI 48 µM | OVCAR-3 31 µM | HOP-62 > 100 µM | KM-20L2 64 µM | NCI-H23 86.1 µM | SK-MEL-2 36.2 µM | HCC 2998 69 µM | OVCAR-5 > 100 µM | ACHN 48.2 µM | TK-10 46 µM | CAKI-1 58.1 µM

Cc1ccc(NCC(=O)N2CC(=O)Nc3ccccc32)c(C)c1
inactive: KM12 > 100 µM | RXF 393 > 100 µM | SF-295 > 100 µM | UO-31 > 100 µM | HCT-116 > 100 µM | K562 > 100 µM | SNB-75 > 100 µM | MOLT-4 > 100 µM | LOX IMVI > 100 µM | OVCAR-3 > 100 µM | HOP-62 > 100 µM | KM-20L2 > 100 µM | NCI-H23 > 100 µM | SK-MEL-2 > 100 µM | HCC 2998 > 100 µM | OVCAR-5 > 100 µM | ACHN > 100 µM | TK-10 > 100 µM | CAKI-1 > 100 µM
